Data reported in paper PMC8398766, “Do Small Molecules Activate the TrkB Receptor in the Same Manner as BDNF? Limitations of Published TrkB Low Molecular Agonists and Screening for Novel TrkB Orthosteric Agonists” (Pharmaceuticals, 2021).

Legend:
in vitro = conditions: human, Caco-2
HIV-1 protease = assay: BioPrint Profile Panel; type: biochemical; conditions: 10 μM; Non-Kinase Enzyme
Excerpt: (§1) The BioPrint® Profile Panel service offered by Eurofins Discovery (Poitiers, France) was chosen to perform selectivity analysis.

p38α kinase = target: T1, p38α kinase (Homo sapiens, UniProt Q16539); assay: BioPrint Profile Panel; type: biochemical; conditions: read-out: % of specific inhibition
T1 construct: purchased Eurofins Discovery (Cerep) BioPrint Profile Panel
Excerpt: as §1

PDE6 = assay: BioPrint Profile Panel; type: biochemical; conditions: 10 μM; Non-Kinase Enzyme
Excerpt: as §1

inducible NOS = assay: BioPrint Profile Panel; type: biochemical; conditions: 10 μM; Non-Kinase Enzyme
Excerpt: as §1

Lyn A kinase = target: T2, Lyn A kinase (Homo sapiens, UniProt P07948); assay: BioPrint Profile Panel; type: biochemical
T2 construct: purchased Eurofins Discovery (Cerep) BioPrint Profile Panel
Excerpt: as §1

COX1 = target: T3, COX1 (Homo sapiens, UniProt P23219); assay: BioPrint Profile Panel; type: biochemical; conditions: Non-Kinase Enzyme, read-out: % of specific inhibition
T3 construct: purchased Eurofins Discovery (Cerep) BioPrint Profile Panel
Excerpt: as §1

Guanylyl cyclase = assay: BioPrint Profile Panel; type: biochemical; conditions: 10 μM; Activator effect
Excerpt: as §1

FLT-1 kinase = target: T4, FLT-1 kinase (Homo sapiens, UniProt P17948); assay: BioPrint Profile Panel; type: biochemical; conditions: read-out: % of specific inhibition
T4 construct: purchased Eurofins Discovery (Cerep) BioPrint Profile Panel
Excerpt: as §1

ZAP70 kinase = target: T5, ZAP70 kinase (Homo sapiens, UniProt P43403); assay: BioPrint Profile Panel; type: biochemical; conditions: read-out: % of specific inhibition
T5 construct: purchased Eurofins Discovery (Cerep) BioPrint Profile Panel
Excerpt: as §1

PDE2A1 = PDE2A1 (Homo sapiens, UniProt O00408); assay: BioPrint Profile Panel; type: biochemical; conditions: Non-Kinase Enzyme, read-out: % of specific inhibition
Excerpt: as §1

MMP-2 = target: T6, MMP-2 (Homo sapiens, UniProt P08253); assay: BioPrint Profile Panel; type: biochemical; conditions: Non-Kinase Enzyme
T6 construct: purchased Eurofins Discovery (Cerep) BioPrint Profile Panel
Excerpt: as §1

CDK2 = target: T7, CDK2 (Homo sapiens, UniProt P24941); assay: BioPrint Profile Panel; type: biochemical; conditions: Kinase, read-out: % of specific inhibition
T7 construct: purchased Eurofins Discovery (Cerep) BioPrint Profile Panel
Excerpt: as §1

IRK = target: T8, IRK (Homo sapiens, UniProt P06213); assay: BioPrint Profile Panel; type: biochemical; conditions: Kinase, read-out: % of specific inhibition
T8 construct: purchased Eurofins Discovery (Cerep) BioPrint Profile Panel
Excerpt: as §1

[1] = target: T9, Xanthine oxidase/ superoxide O2-scavenging (Bos taurus, UniProt P80457); assay: BioPrint Profile Panel; type: biochemical; conditions: Non-Kinase Enzyme
T9 construct: purchased Eurofins Discovery (Cerep) BioPrint Profile Panel
Excerpt: as §1

CaMK2α = target: T10, CaMK2α (Homo sapiens, UniProt Q9UQM7); assay: BioPrint Profile Panel; type: biochemical; conditions: Kinase, read-out: % of specific inhibition
T10 construct: purchased Eurofins Discovery (Cerep) BioPrint Profile Panel
Excerpt: as §1

PDE5 = target: T11, PDE5 (Homo sapiens, UniProt O76074); assay: BioPrint Profile Panel; type: biochemical; conditions: Non-Kinase Enzyme, read-out: % of specific inhibition
T11 construct: purchased Eurofins Discovery (Cerep) BioPrint Profile Panel
Excerpt: as §1

COX2 = target: T12, COX2 (Homo sapiens, UniProt P35354); assay: BioPrint Profile Panel; type: biochemical; conditions: Non-Kinase Enzyme
T12 construct: purchased Eurofins Discovery (Cerep) BioPrint Profile Panel
Excerpt: as §1

PDE4D2 = target: T13, PDE4D2 (Homo sapiens, UniProt Q08499); assay: BioPrint Profile Panel; type: biochemical; conditions: Non-Kinase Enzyme, read-out: % of specific inhibition
T13 construct: purchased Eurofins Discovery (Cerep) BioPrint Profile Panel
Excerpt: as §1

ACE-2 = target: T14, ACE-2 (Homo sapiens, UniProt Q9BYF1); assay: BioPrint Profile Panel; type: biochemical; conditions: Non-Kinase Enzyme, read-out: % of specific inhibition
T14 construct: purchased Eurofins Discovery (Cerep) BioPrint Profile Panel
Excerpt: as §1

MMP-9 = target: T15, MMP-9 (Homo sapiens, UniProt P14780); assay: BioPrint Profile Panel; type: biochemical; conditions: Non-Kinase Enzyme, read-out: % Inhibition of Control Specific Binding
T15 construct: purchased Eurofins Discovery (Cerep) BioPrint Profile Panel
Excerpt: as §1

Abl kinase = target: T16, Abl kinase (Homo sapiens, UniProt P00519); assay: BioPrint Profile Panel; type: biochemical; conditions: read-out: % of specific inhibition
T16 construct: purchased Eurofins Discovery (Cerep) BioPrint Profile Panel
Excerpt: as §1

ACE = target: T17, ACE (Homo sapiens, UniProt P12821); assay: BioPrint Profile Panel; type: biochemical; conditions: Non-Kinase Enzyme, read-out: % of specific inhibition
T17 construct: purchased Eurofins Discovery (Cerep) BioPrint Profile Panel
Excerpt: as §1

[2] = read-out: % Inhibition of Control Specific Binding

T9 sequence (P80457 whole entry): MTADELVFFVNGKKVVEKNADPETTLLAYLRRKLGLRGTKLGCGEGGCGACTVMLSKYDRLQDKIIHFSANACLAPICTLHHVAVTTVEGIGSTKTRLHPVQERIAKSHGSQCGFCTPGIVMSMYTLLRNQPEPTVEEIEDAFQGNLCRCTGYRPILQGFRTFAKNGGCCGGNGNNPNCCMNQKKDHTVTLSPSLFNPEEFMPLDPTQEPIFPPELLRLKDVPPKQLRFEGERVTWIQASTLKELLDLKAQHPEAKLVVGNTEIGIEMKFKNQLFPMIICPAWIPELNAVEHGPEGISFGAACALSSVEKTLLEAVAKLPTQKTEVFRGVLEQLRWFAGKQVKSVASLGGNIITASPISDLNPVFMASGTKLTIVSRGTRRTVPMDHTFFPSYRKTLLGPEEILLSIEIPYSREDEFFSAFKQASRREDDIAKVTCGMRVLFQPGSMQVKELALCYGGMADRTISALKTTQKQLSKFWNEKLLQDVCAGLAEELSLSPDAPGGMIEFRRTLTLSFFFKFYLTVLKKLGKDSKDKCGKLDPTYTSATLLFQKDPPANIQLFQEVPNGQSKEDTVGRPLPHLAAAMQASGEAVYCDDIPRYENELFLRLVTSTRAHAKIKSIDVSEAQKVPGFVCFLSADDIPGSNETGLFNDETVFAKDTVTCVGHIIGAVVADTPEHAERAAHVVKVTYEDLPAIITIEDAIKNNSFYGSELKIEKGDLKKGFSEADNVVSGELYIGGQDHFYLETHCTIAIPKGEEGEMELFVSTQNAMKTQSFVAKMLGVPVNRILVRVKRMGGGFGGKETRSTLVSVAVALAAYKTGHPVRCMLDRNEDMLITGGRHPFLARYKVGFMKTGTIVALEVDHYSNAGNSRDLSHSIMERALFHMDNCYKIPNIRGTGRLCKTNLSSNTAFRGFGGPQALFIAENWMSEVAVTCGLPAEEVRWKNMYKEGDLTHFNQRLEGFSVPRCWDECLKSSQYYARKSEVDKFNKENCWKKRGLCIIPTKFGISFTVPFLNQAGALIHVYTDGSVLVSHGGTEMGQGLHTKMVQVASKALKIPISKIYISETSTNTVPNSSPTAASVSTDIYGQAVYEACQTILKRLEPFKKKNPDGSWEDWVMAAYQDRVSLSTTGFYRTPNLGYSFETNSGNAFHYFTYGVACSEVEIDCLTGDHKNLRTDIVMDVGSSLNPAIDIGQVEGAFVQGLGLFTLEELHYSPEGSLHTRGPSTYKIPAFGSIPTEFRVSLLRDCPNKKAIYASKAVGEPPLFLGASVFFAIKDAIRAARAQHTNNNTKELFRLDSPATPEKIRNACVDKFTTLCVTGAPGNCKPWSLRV
T2 sequence (P07948 whole entry): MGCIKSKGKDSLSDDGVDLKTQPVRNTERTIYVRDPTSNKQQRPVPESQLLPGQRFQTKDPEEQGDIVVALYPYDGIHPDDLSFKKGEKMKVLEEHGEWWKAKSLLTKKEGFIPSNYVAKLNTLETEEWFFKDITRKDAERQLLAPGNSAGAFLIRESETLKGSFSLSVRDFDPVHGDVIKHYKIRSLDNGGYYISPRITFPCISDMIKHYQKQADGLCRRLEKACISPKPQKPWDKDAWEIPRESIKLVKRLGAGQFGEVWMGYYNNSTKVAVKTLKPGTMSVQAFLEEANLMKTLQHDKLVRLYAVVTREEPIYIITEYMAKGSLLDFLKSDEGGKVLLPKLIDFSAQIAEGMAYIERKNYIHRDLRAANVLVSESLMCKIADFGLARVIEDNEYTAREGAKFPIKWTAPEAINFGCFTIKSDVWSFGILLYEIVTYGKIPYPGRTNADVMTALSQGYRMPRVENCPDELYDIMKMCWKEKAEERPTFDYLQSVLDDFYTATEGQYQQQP
T6 sequence (P08253 110-660): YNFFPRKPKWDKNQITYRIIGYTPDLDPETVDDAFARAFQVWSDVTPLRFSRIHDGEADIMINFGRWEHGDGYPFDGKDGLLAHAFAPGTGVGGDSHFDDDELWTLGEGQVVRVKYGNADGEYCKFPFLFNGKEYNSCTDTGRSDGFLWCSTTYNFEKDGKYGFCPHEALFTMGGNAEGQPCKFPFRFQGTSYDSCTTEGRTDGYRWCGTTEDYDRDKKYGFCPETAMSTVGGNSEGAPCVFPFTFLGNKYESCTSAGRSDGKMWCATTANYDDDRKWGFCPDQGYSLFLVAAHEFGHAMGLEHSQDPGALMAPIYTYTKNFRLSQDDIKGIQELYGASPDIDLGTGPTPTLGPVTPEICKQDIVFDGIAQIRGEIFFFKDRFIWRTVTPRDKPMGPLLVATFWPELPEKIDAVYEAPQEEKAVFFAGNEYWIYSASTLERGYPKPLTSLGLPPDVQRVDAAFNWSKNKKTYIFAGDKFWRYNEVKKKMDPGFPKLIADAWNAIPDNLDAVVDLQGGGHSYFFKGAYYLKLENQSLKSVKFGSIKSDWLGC
T12 sequence (P35354 18-604): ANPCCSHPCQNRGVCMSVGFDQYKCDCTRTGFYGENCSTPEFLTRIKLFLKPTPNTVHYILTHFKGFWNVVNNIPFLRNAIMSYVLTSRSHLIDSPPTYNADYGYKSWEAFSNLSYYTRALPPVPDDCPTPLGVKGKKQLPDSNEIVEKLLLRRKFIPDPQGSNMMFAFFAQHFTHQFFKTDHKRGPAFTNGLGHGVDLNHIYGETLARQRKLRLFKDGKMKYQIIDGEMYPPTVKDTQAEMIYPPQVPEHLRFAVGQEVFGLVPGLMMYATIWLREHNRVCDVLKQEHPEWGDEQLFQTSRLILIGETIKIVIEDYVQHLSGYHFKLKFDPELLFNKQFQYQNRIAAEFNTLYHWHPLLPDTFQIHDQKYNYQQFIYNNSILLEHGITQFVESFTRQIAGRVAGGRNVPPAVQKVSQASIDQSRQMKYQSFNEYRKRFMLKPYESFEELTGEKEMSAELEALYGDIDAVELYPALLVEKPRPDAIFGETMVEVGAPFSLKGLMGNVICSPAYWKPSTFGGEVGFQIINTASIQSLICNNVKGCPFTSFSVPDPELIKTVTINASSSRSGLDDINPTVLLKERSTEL
T15 sequence (P14780 94-707): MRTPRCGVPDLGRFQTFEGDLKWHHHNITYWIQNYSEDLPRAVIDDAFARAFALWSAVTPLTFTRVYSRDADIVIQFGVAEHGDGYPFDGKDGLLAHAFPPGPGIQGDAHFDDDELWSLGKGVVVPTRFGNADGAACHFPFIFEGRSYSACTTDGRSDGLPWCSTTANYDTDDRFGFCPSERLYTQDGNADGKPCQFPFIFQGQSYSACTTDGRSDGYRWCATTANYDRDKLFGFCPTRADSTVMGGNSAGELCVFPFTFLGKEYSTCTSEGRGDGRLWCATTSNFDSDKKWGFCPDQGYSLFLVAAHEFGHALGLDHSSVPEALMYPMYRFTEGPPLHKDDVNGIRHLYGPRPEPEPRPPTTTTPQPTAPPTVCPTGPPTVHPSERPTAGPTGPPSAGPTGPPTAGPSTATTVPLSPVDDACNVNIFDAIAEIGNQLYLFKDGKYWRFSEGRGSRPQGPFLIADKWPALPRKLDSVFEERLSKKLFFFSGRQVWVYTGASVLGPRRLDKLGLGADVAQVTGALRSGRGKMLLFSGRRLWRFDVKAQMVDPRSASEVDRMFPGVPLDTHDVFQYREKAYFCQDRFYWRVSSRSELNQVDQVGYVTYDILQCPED
T16 sequence (P00519 whole entry): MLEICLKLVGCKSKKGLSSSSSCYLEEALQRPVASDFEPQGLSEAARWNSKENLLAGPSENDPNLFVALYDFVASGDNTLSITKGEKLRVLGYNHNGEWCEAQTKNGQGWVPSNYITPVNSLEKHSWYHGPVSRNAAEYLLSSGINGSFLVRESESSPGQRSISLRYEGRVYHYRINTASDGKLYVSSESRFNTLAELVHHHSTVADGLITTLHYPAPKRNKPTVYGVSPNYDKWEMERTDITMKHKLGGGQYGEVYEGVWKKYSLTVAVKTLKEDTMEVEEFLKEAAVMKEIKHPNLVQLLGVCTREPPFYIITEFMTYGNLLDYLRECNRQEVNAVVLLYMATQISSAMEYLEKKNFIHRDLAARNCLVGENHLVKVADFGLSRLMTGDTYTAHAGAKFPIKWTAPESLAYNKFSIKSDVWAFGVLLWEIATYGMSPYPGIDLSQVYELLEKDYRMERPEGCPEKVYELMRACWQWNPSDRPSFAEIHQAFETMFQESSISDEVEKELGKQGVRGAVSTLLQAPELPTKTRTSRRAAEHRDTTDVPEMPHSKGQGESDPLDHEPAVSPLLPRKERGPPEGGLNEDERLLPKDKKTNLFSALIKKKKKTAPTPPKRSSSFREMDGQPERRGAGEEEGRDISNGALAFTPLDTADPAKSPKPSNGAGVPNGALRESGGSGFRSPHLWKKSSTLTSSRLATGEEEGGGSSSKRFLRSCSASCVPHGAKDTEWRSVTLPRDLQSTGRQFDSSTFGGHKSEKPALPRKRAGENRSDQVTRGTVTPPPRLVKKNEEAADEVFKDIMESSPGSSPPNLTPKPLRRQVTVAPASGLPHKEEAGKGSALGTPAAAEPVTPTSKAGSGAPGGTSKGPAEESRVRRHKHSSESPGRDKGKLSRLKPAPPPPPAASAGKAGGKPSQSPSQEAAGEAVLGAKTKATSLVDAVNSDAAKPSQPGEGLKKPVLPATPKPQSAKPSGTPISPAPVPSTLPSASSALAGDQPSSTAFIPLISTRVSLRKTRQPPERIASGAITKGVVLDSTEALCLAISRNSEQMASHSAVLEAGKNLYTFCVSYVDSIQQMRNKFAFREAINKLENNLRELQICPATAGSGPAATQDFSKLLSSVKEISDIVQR

O=c1cc(-c2ccccc2)oc2c(O)c(O)ccc12 [7,8-DHF, 7,8-dihydroxyflavone]
Papp A→B at 2 h (in vitro): 228 nm/s | Papp B→A at 2 h (in vitro): 124 nm/s | % of specific inhibition (HIV-1 protease): 1% | inhibition at 10 µM (p38α kinase): -50% | % of specific inhibition (PDE6): 30% | % of specific inhibition (inducible NOS): 3% | % Inhibition of Control Specific Binding (Lyn A kinase; 10 μM): 52.6% | inhibition at 10 µM (Lyn A kinase; [2]): 53% | inhibition at 10 µM (COX1): 49% | % of specific inhibition (Guanylyl cyclase): 2% | inhibition at 10 µM (FLT-1 kinase): 17% | inhibition at 10 µM (ZAP70 kinase): 4% | inhibition at 10 µM (PDE2A1): 5% | % Inhibition of Control Specific Binding (MMP-2; 10 μM): 56.5% | inhibition at 10 µM (MMP-2; [2]): 56% | inhibition at 10 µM (CDK2): 0% | inhibition at 10 µM (IRK): 12% | % Inhibition of Control Specific Binding ([1]; 10 μM): 91.5% | inhibition at 10 µM [1, 2]: 92% | inhibition at 10 µM (CaMK2α): -20% | inhibition at 10 µM (PDE5): 48% | % Inhibition of Control Specific Binding (COX2; 10 μM): 81.6% | inhibition at 10 µM (COX2; [2]): 82% | inhibition at 10 µM (PDE4D2): 38% | inhibition at 10 µM (ACE-2): -8% | inhibition at 10 µM (MMP-9): 72% | inhibition at 10 µM (Abl kinase): 25% | inhibition at 10 µM (ACE): 5%
